system: late watergrass; assay: Test Example 1: herbicidal activity, application before weed generation under submerged conditions (Table 16, symbol A); assay type: in vivo, late watergrass (Echinochloa oryzicola); conditions: amount of applied herbicide 320 g/ha
How it was run: (§1)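 Submerged Wagner pots (alluvial soil, 4 cm water) sown with weed seeds and planted with 2.5-leaf rice seedlings; emulsifiable concentrate diluted in water applied to water surface on sowing day. Held in greenhouse at 25-30 °C; injury scored 0-5 by herbicidal rate after three weeks.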

Which “Herbicidal effect, A: late watergrass” value does the source give for `Cc1nn(C)c(=O)c(-c2c(-c3ccccc3OC(F)(F)F)sc3c(Cl)cccc23)c1O` [4-076] here?
The value was 0 (Herbicidal rate of 5% or less (almost no effect)).

`COc1ccc(-c2sc3c(C)cccc3c2-c2c(O)c(C)nn(C)c2=O)cc1` [4-110] was tested. Which “Herbicidal effect, A: late watergrass” value did it give?
The value was 5 (Herbicidal rate of 90% or more (almost completely withered)).

system: Japanese bulrush; assay: Test Example 1: herbicidal activity, application before weed generation under submerged conditions (Table 16, symbol B); assay type: in vivo, Japanese bulrush (Schoenoplectus juncoides); conditions: amount of applied herbicide 320 g/ha
How it was run: as §1

`Cc1nn(C)c(=O)c(-c2c(-c3ccccc3OC(F)(F)F)sc3c(Cl)cccc23)c1O` [4-076] was tested. Which “Herbicidal effect, B: Japanese bulrush” value did it give?
The value was 3 (Herbicidal rate of 40% or more and less than 70%).

How did the “Herbicidal effect, B: Japanese bulrush” value turn out when `COc1ccc(-c2sc3c(C)cccc3c2-c2c(O)c(C)nn(C)c2=O)cc1` [4-110] was run?
Its value is 5 (Herbicidal rate of 90% or more (almost completely withered)).

system: oval-leafed pondweed; assay: Test Example 1: herbicidal activity, application before weed generation under submerged conditions (Table 16, symbol C); assay type: in vivo, oval-leafed pondweed (Monochoria vaginalis); conditions: amount of applied herbicide 320 g/ha
How it was run: as §1

For `Cc1nn(C)c(=O)c(-c2c(-c3ccccc3OC(F)(F)F)sc3c(Cl)cccc23)c1O` [4-076], which “Herbicidal effect, C: oval-leafed pondweed” value is on record?
The value was 0 (Herbicidal rate of 5% or less (almost no effect)).

For `COc1ccc(-c2sc3c(C)cccc3c2-c2c(O)c(C)nn(C)c2=O)cc1` [4-110], which “Herbicidal effect, C: oval-leafed pondweed” value is on record?
Its value is 4 (Herbicidal rate of 70% or more and less than 90%).

system: late watergrass; assay: Test Example 2: herbicidal activity, application during weed generation under submerged conditions (Table 17, symbol A); assay type: in vivo, late watergrass (Echinochloa oryzicola); conditions: AAH 320 g/ha; application during weed generation, submerged conditions
How it was run: (§2)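 Wagner pot, alluvial soil, 4 cm flood; mixed sowing of all species; greenhouse 25° C.–30° C. Emulsifiable formulation, water-diluted to predetermined dose, applied to paddy water at 1–2 leaf stage. Effect rated at 3 wk using the earlier test's scoring criteria.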

For `Cc1nn(C)c(=O)c(-c2c(-c3ccccc3OC(F)(F)F)sc3c(Cl)cccc23)c1O` [4-076], which “herbicidal effect rating, A: late watergrass” value is on record?
Its value is 3 (Herbicidal rate of 40% or more and less than 70%).

With `COc1ccc(-c2sc3c(C)cccc3c2-c2c(O)c(C)nn(C)c2=O)cc1` [4-110] as the molecule, how does the “herbicidal effect rating, A: late watergrass” value read?
Its value is 0 (Herbicidal rate of 5% or less (almost no effect)).

system: oval-leafed pondweed; assay: Test Example 2: herbicidal activity, application during weed generation under submerged conditions (Table 17, symbol C); assay type: in vivo, oval-leafed pondweed (Monochoria vaginalis); conditions: AAH 320 g/ha; application during weed generation, submerged conditions
How it was run: as §2

For `Cc1nn(C)c(=O)c(-c2c(-c3ccccc3OC(F)(F)F)sc3c(Cl)cccc23)c1O` [4-076], which “herbicidal effect rating, C: oval-leafed pondweed” value is on record?
The value was 0 (Herbicidal rate of 5% or less (almost no effect)).

`COc1ccc(-c2sc3c(C)cccc3c2-c2c(O)c(C)nn(C)c2=O)cc1` [4-110] was tested. Which “herbicidal effect rating, C: oval-leafed pondweed” value did it give?
Its value is 5 (Herbicidal rate of 90% or more (almost completely withered)).

system: barnyard grass; assay: Test Example 3: herbicidal effect by foliage application, Wagner pot (Table 18, symbol H); assay type: in vivo, barnyard grass (Echinochloa crus-galli); conditions: 320 g/ha
How it was run: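 Plants were sown in alluvial soil held under 0.1–0.5 cm standing water and grown 14 days in a greenhouse at 25–30 °C. An emulsifiable formulation, water-diluted to the set dose, was then sprayed onto the foliage, and effects were scored three weeks later using previously defined criteria.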

With `Cc1nn(C)c(=O)c(-c2c(-c3ccccc3OC(F)(F)F)sc3c(Cl)cccc23)c1O` [4-076] as the molecule, how does the “herbicidal effect on barnyard grass (H)” value read?
Its value is 4 (Herbicidal rate of 70% or more and less than 90%).

Which “herbicidal effect on barnyard grass (H)” value does the source give for `COc1ccc(-c2sc3c(C)cccc3c2-c2c(O)c(C)nn(C)c2=O)cc1` [4-110] here?
The value was 5 (Herbicidal rate of 90% or more (almost completely withered)).

system: southern crabgrass; assay: Test Example 4: herbicidal effect by soil treatment (Table 19, symbol F); assay type: in vivo, southern crabgrass (Digitaria ciliaris); conditions: amount of applied herbicide 320 g/ha
How it was run: (§3)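 Pre-emergence style soil spray: seeds under ~1.5 cm sterilized diluvial soil received a uniform coat of emulsion diluted to the predetermined herbicide amount. Greenhouse 25–30° C; readout at week three on previously defined criteria.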

With `Cc1nn(C)c(=O)c(-c2c(-c3ccccc3OC(F)(F)F)sc3c(Cl)cccc23)c1O` [4-076] as the molecule, how does the “Herbicidal effect by soil treatment, F: southern crabgrass” value read?
The value was 0 (Herbicidal rate of 5% or less (almost no effect)).

For `COc1ccc(-c2sc3c(C)cccc3c2-c2c(O)c(C)nn(C)c2=O)cc1` [4-110], which “Herbicidal effect by soil treatment, F: southern crabgrass” value is on record?
Its value is 0 (Herbicidal rate of 5% or less (almost no effect)).

system: wild oat; assay: Test Example 4: herbicidal effect by soil treatment (Table 19, symbol I); assay type: in vivo, wild oat (Avena fatua); conditions: amount of applied herbicide 320 g/ha
How it was run: as §3

With `Cc1nn(C)c(=O)c(-c2c(-c3ccccc3OC(F)(F)F)sc3c(Cl)cccc23)c1O` [4-076] as the molecule, how does the “Herbicidal effect by soil treatment, I: wild oat” value read?
The value was 0 (Herbicidal rate of 5% or less (almost no effect)).

`COc1ccc(-c2sc3c(C)cccc3c2-c2c(O)c(C)nn(C)c2=O)cc1` [4-110] was tested. Which “Herbicidal effect by soil treatment, I: wild oat” value did it give?
Its value is 0 (Herbicidal rate of 5% or less (almost no effect)).

system: windgrass; assay: Test Example 4: herbicidal effect by soil treatment (Table 19, symbol L); assay type: in vivo, windgrass (Apera spica-venti); conditions: amount of applied herbicide 320 g/ha
How it was run: as §3

Which “Herbicidal effect by soil treatment, L: windgrass” value does the source give for `Cc1nn(C)c(=O)c(-c2c(-c3ccccc3OC(F)(F)F)sc3c(Cl)cccc23)c1O` [4-076] here?
Its value is 0 (Herbicidal rate of 5% or less (almost no effect)).

For `COc1ccc(-c2sc3c(C)cccc3c2-c2c(O)c(C)nn(C)c2=O)cc1` [4-110], which “Herbicidal effect by soil treatment, L: windgrass” value is on record?
The value was 0 (Herbicidal rate of 5% or less (almost no effect)).

system: velvetleaf; assay: Test Example 4: herbicidal effect by soil treatment (Table 19, symbol M); assay type: in vivo, velvetleaf (Abutilon theophrasti); conditions: amount of applied herbicide 320 g/ha
How it was run: as §3

With `Cc1nn(C)c(=O)c(-c2c(-c3ccccc3OC(F)(F)F)sc3c(Cl)cccc23)c1O` [4-076] as the molecule, how does the “Herbicidal effect by soil treatment, M: velvetleaf” value read?
Its value is 2 (Herbicidal rate of 20% or more and less than 40%).

For `COc1ccc(-c2sc3c(C)cccc3c2-c2c(O)c(C)nn(C)c2=O)cc1` [4-110], which “Herbicidal effect by soil treatment, M: velvetleaf” value is on record?
Its value is 3 (Herbicidal rate of 40% or more and less than 70%).

system: redroot pigweed; assay: Test Example 4: herbicidal effect by soil treatment (Table 19, symbol N); assay type: in vivo, redroot pigweed (Amaranthus retroflexus); conditions: amount of applied herbicide 320 g/ha
How it was run: as §3

How did the “Herbicidal effect by soil treatment, N: redroot pigweed” value turn out when `Cc1nn(C)c(=O)c(-c2c(-c3ccccc3OC(F)(F)F)sc3c(Cl)cccc23)c1O` [4-076] was run?
The value was 4 (Herbicidal rate of 70% or more and less than 90%).

With `COc1ccc(-c2sc3c(C)cccc3c2-c2c(O)c(C)nn(C)c2=O)cc1` [4-110] as the molecule, how does the “Herbicidal effect by soil treatment, N: redroot pigweed” value read?
The value was 5 (Herbicidal rate of 90% or more (almost completely withered)).

system: chickweed; assay: Test Example 4: herbicidal effect by soil treatment (Table 19, symbol P); assay type: in vivo, common chickweed (Stellaria media); conditions: amount of applied herbicide 320 g/ha
How it was run: as §3

Which “Herbicidal effect by soil treatment, P: chickweed” value does the source give for `Cc1nn(C)c(=O)c(-c2c(-c3ccccc3OC(F)(F)F)sc3c(Cl)cccc23)c1O` [4-076] here?
Its value is 1 (Herbicidal rate of 5% or more and less than 20%).

With `COc1ccc(-c2sc3c(C)cccc3c2-c2c(O)c(C)nn(C)c2=O)cc1` [4-110] as the molecule, how does the “Herbicidal effect by soil treatment, P: chickweed” value read?
The value was 5 (Herbicidal rate of 90% or more (almost completely withered)).

system: persian speedwell; assay: Test Example 4: herbicidal effect by soil treatment (Table 19, symbol R); assay type: in vivo, Persian speedwell (Veronica persica); conditions: amount of applied herbicide 320 g/ha
How it was run: as §3

`Cc1nn(C)c(=O)c(-c2c(-c3ccccc3OC(F)(F)F)sc3c(Cl)cccc23)c1O` [4-076] was tested. Which “Herbicidal effect by soil treatment, R: persian speedwell” value did it give?
The value was 3 (Herbicidal rate of 40% or more and less than 70%).

How did the “Herbicidal effect by soil treatment, R: persian speedwell” value turn out when `COc1ccc(-c2sc3c(C)cccc3c2-c2c(O)c(C)nn(C)c2=O)cc1` [4-110] was run?
The value was 4 (Herbicidal rate of 70% or more and less than 90%).

system: southern crabgrass; assay: Test Example 5: herbicidal effect by foliage application, plastic box (Table 20, symbol F); assay type: in vivo, southern crabgrass (Digitaria ciliaris); conditions: amount of applied herbicide 320 g/ha; foliage application after 14-day growth; evaluated three weeks after application
How it was run: (§4)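 Plants were sown into sterilized diluvial soil under about 1.5 cm cover and kept in a greenhouse at 25° C. to 30° C. Fourteen days on, foliage received an even spray of the diluted emulsion. Herbicidal or crop effect was judged three weeks afterwards.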

With `Cc1nn(C)c(=O)c(-c2c(-c3ccccc3OC(F)(F)F)sc3c(Cl)cccc23)c1O` [4-076] as the molecule, how does the “Herbicidal effect by foliage application, F: southern crabgrass” value read?
Its value is 1 (Herbicidal rate of 5% or more and less than 20%).

`COc1ccc(-c2sc3c(C)cccc3c2-c2c(O)c(C)nn(C)c2=O)cc1` [4-110] was tested. Which “Herbicidal effect by foliage application, F: southern crabgrass” value did it give?
The value was 1 (Herbicidal rate of 5% or more and less than 20%).

system: green foxtail; assay: Test Example 5: herbicidal effect by foliage application, plastic box (Table 20, symbol G); assay type: in vivo, green foxtail (Setaria viridis); conditions: amount of applied herbicide 320 g/ha; foliage application after 14-day growth; evaluated three weeks after application
How it was run: as §4

`Cc1nn(C)c(=O)c(-c2c(-c3ccccc3OC(F)(F)F)sc3c(Cl)cccc23)c1O` [4-076] was tested. Which “Herbicidal effect by foliage application, G: green foxtail” value did it give?
The value was 4 (Herbicidal rate of 70% or more and less than 90%).

With `COc1ccc(-c2sc3c(C)cccc3c2-c2c(O)c(C)nn(C)c2=O)cc1` [4-110] as the molecule, how does the “Herbicidal effect by foliage application, G: green foxtail” value read?
Its value is 3 (Herbicidal rate of 40% or more and less than 70%).

system: redroot pigweed; assay: Test Example 5: herbicidal effect by foliage application, plastic box (Table 20, symbol N); assay type: in vivo, redroot pigweed (Amaranthus retroflexus); conditions: amount of applied herbicide 320 g/ha; foliage application after 14-day growth; evaluated three weeks after application
How it was run: as §4

`Cc1nn(C)c(=O)c(-c2c(-c3ccccc3OC(F)(F)F)sc3c(Cl)cccc23)c1O` [4-076] was tested. Which “Herbicidal effect by foliage application, N: redroot pigweed” value did it give?
Its value is 5 (Herbicidal rate of 90% or more (almost completely withered)).

How did the “Herbicidal effect by foliage application, N: redroot pigweed” value turn out when `COc1ccc(-c2sc3c(C)cccc3c2-c2c(O)c(C)nn(C)c2=O)cc1` [4-110] was run?
The value was 5 (Herbicidal rate of 90% or more (almost completely withered)).
